Drawing on US10428083B2, “Heterocyclylmethyl-thienouracile as antagonists of the adenosine-A2B-receptor” (BAYER PHARMA AKTIENGESELLSCHAFT, priority 2015, dated 2019), this text covers IC50 for 25 compounds.

In the test the target is human adenosine A2b receptor (Homo sapiens (Human), UniProt P29275). Briefly: Cellular in vitro reporter gene test for A2b receptor activity (CHO-K1, CRE-luciferase, NECA stimulation). Particulars: recombinant CHO-K1 cell line, CRE-luciferase reporter, antagonism of EC50 concentration of NECA; in some cases means of several determinations, rounded to two significant figures; read-out: A2b receptor IC50. It is filed as cell-based. The gist of the method:
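CHO-K1 cells with CRE-driven luciferase; antagonists co-incubated with NECA at its EC50, determined in a pre-experiment on each test day. Luciferase read by luminescence 3 h after NECA addition.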
A general note: In a reporter assay the amount or activity of a reporter protein is the signal.

human adenosine A2b receptor, sequence (P29275 whole entry): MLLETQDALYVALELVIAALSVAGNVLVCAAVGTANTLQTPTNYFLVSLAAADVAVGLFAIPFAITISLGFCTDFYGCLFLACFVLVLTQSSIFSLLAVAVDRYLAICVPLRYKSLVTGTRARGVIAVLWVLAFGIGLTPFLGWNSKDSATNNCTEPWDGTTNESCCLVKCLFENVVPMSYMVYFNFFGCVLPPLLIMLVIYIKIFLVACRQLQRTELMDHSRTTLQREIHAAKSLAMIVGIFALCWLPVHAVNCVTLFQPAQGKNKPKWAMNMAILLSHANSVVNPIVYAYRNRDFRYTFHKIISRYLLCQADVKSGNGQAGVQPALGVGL

For the compound `CCn1c(=O)c2c(C)c(CN3CCNC(=O)C3=O)sc2n(CC2CCCO2)c1=O` (single isomer, unassigned) [Example 476, 6-[(2,3-Dioxopiperazin-1-yl)methyl]-3-ethyl-5-methyl-1-(tetrahydrofuran-2-ylmethyl)thieno[2,3-d]pyrimidine-2,4(1H,3H)-dione], the IC50 (commonly the point on the concentration scale where inhibition reaches its midpoint) worked out at 140 nM. In the case of `CCn1c(=O)c2c(C)c(CN3CCNC(=O)C3=O)sc2n(CC2CCCO2)c1=O` (single isomer, unassigned) [Example 477, 6-[(2,3-Dioxopiperazin-1-yl)methyl]-3-ethyl-5-methyl-1-(tetrahydrofuran-2-ylmethyl)thieno[2,3-d]pyrimidine-2,4(1H,3H)-dione] it was 270 nM; in that of `Cc1c(CN2CCNC(=O)C2=O)sc2c1c(=O)n(C(C)C)c(=O)n2CC1CCCO1` (single isomer, unassigned) [Example 481, 6-[(2,3-Dioxopiperazin-1-yl)methyl]-3-isopropyl-5-methyl-1-(tetrahydrofuran-2-ylmethyl)thieno[2,3-d]pyrimidine-2,4(1H,3H)-dione], 140 nM.

`Cc1c(CN2CCNC(=O)C2=O)sc2c1c(=O)n(C(C)C)c(=O)n2CC1CCCO1` (single isomer, unassigned) [Example 482, 6-[(2,3-Dioxopiperazin-1-yl)methyl]-3-isopropyl-5-methyl-1-(tetrahydrofuran-2-ylmethyl)thieno[2,3-d]pyrimidine-2,4(1H,3H)-dione]: the IC50 is 410 nM. In the case of `Cc1c(CN2CCNC(=O)C2=O)sc2c1c(=O)n(CC(C)(C)C)c(=O)n2CC1CCCO1` (single isomer, unassigned) [Example 484, 3-(2,2-Dimethylpropyl)-6-[(2,3-dioxopiperazin-1-yl)methyl]-5-methyl-1-(tetrahydrofuran-2-ylmethyl)thieno[2,3-d]pyrimidine-2,4(1H,3H)-dione] it was 67 nM.

Take `Cc1c(CN2CCNC(=O)C2=O)sc2c1c(=O)n(CC(C)(C)C)c(=O)n2CC1CCCO1` (single isomer, unassigned) [Example 485, 3-(2,2-Dimethylpropyl)-6-[(2,3-dioxopiperazin-1-yl)methyl]-5-methyl-1-(tetrahydrofuran-2-ylmethyl)thieno[2,3-d]pyrimidine-2,4(1H,3H)-dione]: the IC50 was 52 nM. `Cc1c(CN2CCNC(=O)C2=O)sc2c1c(=O)n(CC(F)(F)F)c(=O)n2CC1CCCO1` (single isomer, unassigned) [Example 488, 6-[(2,3-Dioxopiperazin-1-yl)methyl]-5-methyl-1-(tetrahydrofuran-2-ylmethyl)-3-(2,2,2-trifluoroethyl)thieno[2,3-d]pyrimidine-2,4(1H,3H)-dione]: the IC50 was determined as 68 nM.

Take `Cc1c(CN2CCNC(=O)C2=O)sc2c1c(=O)n(CC(F)(F)F)c(=O)n2CC1CCCO1` (single isomer, unassigned) [Example 489, 6-[(2,3-Dioxopiperazin-1-yl)methyl]-5-methyl-1-(tetrahydrofuran-2-ylmethyl)-3-(2,2,2-trifluoroethyl)thieno[2,3-d]pyrimidine-2,4(1H,3H)-dione]: the IC50 was 27 nM. In the case of `COC(C)Cn1c(=O)c2c(C)c(CN3CCNC(=O)C3=O)sc2n(CCC(F)(F)F)c1=O` (single isomer, unassigned) [Example 494, 6-[(2,3-Dioxopiperazin-1-yl)methyl]-3-(2-methoxypropyl)-5-methyl-1-(3,3,3-trifluoropropyl)thieno[2,3-d]pyrimidine-2,4(1H,3H)-dione] it was 20 nM. In the case of `COC(C)Cn1c(=O)c2c(C)c(CN3CCNC(=O)C3=O)sc2n(CCC(F)(F)F)c1=O` (single isomer, unassigned) [Example 495, 6-[(2,3-Dioxopiperazin-1-yl)methyl]-3-(2-methoxypropyl)-5-methyl-1-(3,3,3-trifluoropropyl)thieno[2,3-d]pyrimidine-2,4(1H,3H)-dione] it was 57 nM; in that of `COCCn1c(=O)n(C(C)C(F)(F)F)c(=O)c2c(C)c(CN3CCNC3=O)sc21` (single isomer, unassigned) [Example 498, 1-(2-Methoxyethyl)-5-methyl-6-[(2-oxoimidazolidin-1-yl)methyl]-3-(1,1,1-trifluoropropan-2-yl)thieno[2,3-d]pyrimidine-2,4(1H,3H)-dione], 79 nM; in that of `COCCn1c(=O)n(C(C)C(F)(F)F)c(=O)c2c(C)c(CN3CCNC3=O)sc21` (single isomer, unassigned) [Example 499, 1-(2-Methoxyethyl)-5-methyl-6-[(2-oxoimidazolidin-1-yl)methyl]-3-(1,1,1-trifluoropropan-2-yl)thieno[2,3-d]pyrimidine-2,4(1H,3H)-dione], 230 nM.

Consider `CCn1c(=O)c2c(C)c(C(C)N3CCNC3=O)sc2n(CCC(F)(F)F)c1=O` (single isomer, unassigned) [Example 503, 3-Ethyl-5-methyl-6-[1-(2-oxoimidazolidin-1-yl)ethyl]-1-(3,3,3-trifluoropropyl)thieno[2,3-d]pyrimidine-2,4(1H,3H)-dione], for which the IC50 worked out at 39 nM. Turning to `CCn1c(=O)c2c(C)c(C(C)N3CCNC3=O)sc2n(CCC(F)(F)F)c1=O` (single isomer, unassigned) [Example 504, 3-Ethyl-5-methyl-6-[1-(2-oxoimidazolidin-1-yl)ethyl]-1-(3,3,3-trifluoropropyl)thieno[2,3-d]pyrimidine-2,4(1H,3H)-dione], the IC50 turned out to be 2000 nM.

Consider `COCCn1c(=O)n(C(C)C(F)(F)F)c(=O)c2c(C)c(CN3CCNC3=NC#N)sc21` (single isomer, unassigned) [Example 510, [1-{[1-(2-Methoxyethyl)-5-methyl-2,4-dioxo-3-(1,1,1-trifluoropropan-2-yl)-1,2,3,4-tetrahydrothieno[2,3-d]pyrimidin-6-yl]methyl}imidazolidin-2-ylidene]cyanamide], for which the IC50 was found to be 47 nM.

Consider `COCCn1c(=O)n(C(C)C(F)(F)F)c(=O)c2c(C)c(CN3CCNC3=NC#N)sc21` (single isomer, unassigned) [Example 511, [1-{[1-(2-Methoxyethyl)-5-methyl-2,4-dioxo-3-(1,1,1-trifluoropropan-2-yl)-1,2,3,4-tetrahydrothieno[2,3-d]pyrimidin-6-yl]methyl}imidazolidin-2-ylidene]cyanamide], for which the IC50 amounted to 110 nM.

On to `COCCn1c(=O)n(C(C)C(F)(F)F)c(=O)c2c(C)c(CN3CCNC3=NC(=O)OC)sc21` (single isomer, unassigned) [Example 514, Methyl [1-{[1-(2-methoxyethyl)-5-methyl-2,4-dioxo-3-(1,1,1-trifluoropropan-2-yl)-1,2,3,4-tetrahydrothieno[2,3-d]pyrimidin-6-yl]methyl}imidazolidin-2-ylidene]carbamate], for which the IC50 is 32 nM. In the case of `COCCn1c(=O)n(C(C)C(F)(F)F)c(=O)c2c(C)c(CN3CCNC3=NC(=O)OC)sc21` (single isomer, unassigned) [Example 515, Methyl [1-{[1-(2-methoxyethyl)-5-methyl-2,4-dioxo-3-(1,1,1-trifluoropropan-2-yl)-1,2,3,4-tetrahydrothieno[2,3-d]pyrimidin-6-yl]methyl}imidazolidin-2-ylidene]carbamate] it was 24 nM. In the case of `CCn1c(=O)c2c(C)c(CN3CCNC3=O)sc2n(CC2CC2(F)F)c1=O` (single isomer, unassigned; enantiomer 1) [Example 55, 1-[(2,2-Difluorocyclopropyl)methyl]-3-ethyl-5-methyl-6-[(2-oxoimidazolidin-1-yl)methyl]thieno[2,3-d]pyrimidine-2,4(1H,3H)-dione (Enantiomer 1)] it was 1.3 nM; in that of `CCn1c(=O)c2c(C)c(CN3CCNC3=O)sc2n(CC(C)OC)c1=O` (single isomer, unassigned; enantiomer 1) [Example 63, 3-Ethyl-1-(2-methoxypropyl)-5-methyl-6-[(2-oxoimidazolidin-1-yl)methyl]thieno[2,3-d]pyrimidine-2,4(1H,3H)-dione (Enantiomer 1)], 39 nM; in that of `CCn1c(=O)c2c(C)c(CN3CCNC3=O)sc2n(CC2CCCO2)c1=O` (single isomer, unassigned; enantiomer 1) [Example 69, 3-Ethyl-5-methyl-6-[(2-oxoimidazolidin-1-yl)methyl]-1-(tetrahydrofuran-2-ylmethyl)thieno[2,3-d]pyrimidine-2,4(1H,3H)-dione (Enantiomer 1)], 9.8 nM. In the case of `CCn1c(=O)c2c(C)c(CN3CCNC3=O)sc2n(CC2CCOC2)c1=O` (single isomer, unassigned; enantiomer 1) [Example 74, 3-Ethyl-5-methyl-6-[(2-oxoimidazolidin-1-yl)methyl]-1-(tetrahydrofuran-3-ylmethyl)thieno[2,3-d]pyrimidine-2,4(1H,3H)-dione (Enantiomer 1)] it was 36 nM; in that of `CCn1c(=O)c2c(C)c(CN3CCNC3=O)sc2n(CC2CC2(F)F)c1=O` (single isomer, unassigned; enantiomer 2) [Example 56, 1-[(2,2-Difluorocyclopropyl)methyl]-3-ethyl-5-methyl-6-[(2-oxoimidazolidin-1-yl)methyl]thieno[2,3-d]pyrimidine-2,4(1H,3H)-dione (Enantiomer 2)], 8 nM. Regarding `CCn1c(=O)c2c(C)c(CN3CCNC3=O)sc2n(CC(C)OC)c1=O` (single isomer, unassigned; enantiomer 2) [Example 64, 3-Ethyl-1-(2-methoxypropyl)-5-methyl-6-[(2-oxoimidazolidin-1-yl)methyl]thieno[2,3-d]pyrimidine-2,4(1H,3H)-dione (Enantiomer 2)], the IC50 was 86 nM. Turning to `CCn1c(=O)c2c(C)c(CN3CCNC3=O)sc2n(CC2CCO2)c1=O` (single isomer, unassigned; enantiomer 2) [Example 67, 3-Ethyl-5-methyl-1-(oxetan-2-ylmethyl)-6-[(2-oxoimidazolidin-1-yl)methyl]thieno[2,3-d]pyrimidine-2,4(1H,3H)-dione (Enantiomer 2)], the IC50 was 29 nM.
